The structures appear in SMILES notation. Structures can show the parent of a compound that is named as a salt.

In patent US9902696B2, “1,4-substituted piperidine derivatives” (Cephalon, Inc., priority 2015, dated 2018) one finds IC50 data, which are given here for 36 compounds.

The target of the first assay is T1, recombinant human baculovirus-expressed GST-tagged FASN (Homo sapiens, UniProt P49327).
T1 construct: GST
T1 sequence (P49327 whole entry): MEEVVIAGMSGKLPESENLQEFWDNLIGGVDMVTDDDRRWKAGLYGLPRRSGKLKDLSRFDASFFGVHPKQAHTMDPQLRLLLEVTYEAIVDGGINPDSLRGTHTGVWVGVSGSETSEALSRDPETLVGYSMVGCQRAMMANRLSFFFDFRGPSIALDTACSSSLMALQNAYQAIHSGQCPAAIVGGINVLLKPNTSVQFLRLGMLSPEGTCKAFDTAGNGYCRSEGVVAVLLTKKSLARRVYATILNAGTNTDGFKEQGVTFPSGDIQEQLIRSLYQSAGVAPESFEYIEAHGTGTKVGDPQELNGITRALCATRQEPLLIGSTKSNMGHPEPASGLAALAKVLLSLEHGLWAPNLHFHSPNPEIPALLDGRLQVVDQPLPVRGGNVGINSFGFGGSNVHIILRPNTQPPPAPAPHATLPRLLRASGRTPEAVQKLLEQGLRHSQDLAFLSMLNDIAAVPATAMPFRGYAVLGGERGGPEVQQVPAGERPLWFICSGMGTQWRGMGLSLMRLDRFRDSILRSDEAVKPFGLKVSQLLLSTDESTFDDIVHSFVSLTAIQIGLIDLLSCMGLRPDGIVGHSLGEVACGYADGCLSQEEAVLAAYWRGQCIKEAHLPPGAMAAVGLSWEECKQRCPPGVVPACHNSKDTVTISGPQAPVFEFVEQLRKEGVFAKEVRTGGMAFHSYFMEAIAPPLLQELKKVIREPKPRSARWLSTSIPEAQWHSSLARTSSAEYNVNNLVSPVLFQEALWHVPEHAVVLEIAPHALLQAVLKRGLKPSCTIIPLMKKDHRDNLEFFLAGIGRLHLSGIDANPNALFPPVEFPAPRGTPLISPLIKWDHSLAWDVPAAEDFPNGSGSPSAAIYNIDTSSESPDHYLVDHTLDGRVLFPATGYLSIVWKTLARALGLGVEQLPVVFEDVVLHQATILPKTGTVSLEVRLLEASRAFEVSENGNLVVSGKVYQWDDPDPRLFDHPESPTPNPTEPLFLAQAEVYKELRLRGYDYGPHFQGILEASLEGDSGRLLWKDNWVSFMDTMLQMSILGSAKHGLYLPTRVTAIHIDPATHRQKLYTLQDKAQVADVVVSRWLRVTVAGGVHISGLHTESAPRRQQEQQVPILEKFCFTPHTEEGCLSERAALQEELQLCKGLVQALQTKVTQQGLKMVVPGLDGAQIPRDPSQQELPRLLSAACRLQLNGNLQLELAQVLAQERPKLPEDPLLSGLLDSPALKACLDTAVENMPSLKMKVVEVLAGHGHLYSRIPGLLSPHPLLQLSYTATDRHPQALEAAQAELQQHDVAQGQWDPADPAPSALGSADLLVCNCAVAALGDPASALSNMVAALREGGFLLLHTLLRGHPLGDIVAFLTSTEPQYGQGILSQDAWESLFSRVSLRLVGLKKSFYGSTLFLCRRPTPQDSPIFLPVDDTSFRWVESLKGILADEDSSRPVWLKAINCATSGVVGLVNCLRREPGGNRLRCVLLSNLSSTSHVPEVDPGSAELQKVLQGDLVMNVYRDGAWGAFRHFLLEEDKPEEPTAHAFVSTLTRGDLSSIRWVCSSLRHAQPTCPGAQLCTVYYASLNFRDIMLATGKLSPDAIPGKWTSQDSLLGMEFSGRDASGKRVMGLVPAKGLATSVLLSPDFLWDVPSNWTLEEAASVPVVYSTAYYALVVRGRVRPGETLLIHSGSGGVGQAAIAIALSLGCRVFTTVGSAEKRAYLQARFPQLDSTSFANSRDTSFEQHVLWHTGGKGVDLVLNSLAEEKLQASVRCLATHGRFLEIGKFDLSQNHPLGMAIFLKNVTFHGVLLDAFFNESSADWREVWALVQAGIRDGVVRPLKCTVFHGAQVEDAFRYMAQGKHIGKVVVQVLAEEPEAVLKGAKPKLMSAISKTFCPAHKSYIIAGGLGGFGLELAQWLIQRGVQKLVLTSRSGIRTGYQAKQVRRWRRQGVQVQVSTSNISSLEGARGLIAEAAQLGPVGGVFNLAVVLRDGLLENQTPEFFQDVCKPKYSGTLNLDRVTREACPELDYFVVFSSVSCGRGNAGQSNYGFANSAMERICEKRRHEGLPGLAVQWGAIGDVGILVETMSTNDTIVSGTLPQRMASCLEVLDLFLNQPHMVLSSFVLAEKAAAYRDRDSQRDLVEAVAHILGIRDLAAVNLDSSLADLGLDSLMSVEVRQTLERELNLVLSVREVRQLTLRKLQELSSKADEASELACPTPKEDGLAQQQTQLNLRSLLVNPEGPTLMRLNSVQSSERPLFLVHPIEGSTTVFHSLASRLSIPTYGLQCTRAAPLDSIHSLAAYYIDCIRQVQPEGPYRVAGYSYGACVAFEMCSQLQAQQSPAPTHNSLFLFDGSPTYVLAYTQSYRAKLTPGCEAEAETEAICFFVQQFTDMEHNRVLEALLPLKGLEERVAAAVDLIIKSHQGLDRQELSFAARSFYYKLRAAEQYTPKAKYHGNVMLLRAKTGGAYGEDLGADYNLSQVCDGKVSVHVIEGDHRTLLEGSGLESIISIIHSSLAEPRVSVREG
The experiment in a line: FASN enzyme activity assay, fluorescence-based detection of CoA with CPM. It is filed as biochemical. The note with it: 5 nM FASN, 150 μM NADPH, 10 μM acetyl-CoA, 25 μM malonyl-CoA, 90 minutes incubation; read-out: IC50 data for Additional Compounds of Formulae I-V(a): Activity. The essentials: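 CoA product reacted with thiol-reactive CPM (diluted to 50 μM in 70% ethanol), read at 390/530 nm after 30 min. Preceding reaction: 90 min, 5 nM recombinant GST-FASN, 150 μM NADPH, 10 μM acetyl-CoA, 25 μM malonyl-CoA, pH 7.5 HEPES, 0.5% DMSO. IC50s fitted by nonlinear sigmoidal regression.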
Consider `Cc1c(-c2ccc(OC3CCN(C(=O)OCCN4CCCC4)CC3)cc2)ccc2cccnc12` [Example 547, 2-Pyrrolidin-1-ylethyl 4-[4-(8-methyl-7-quinolyl)phenoxy]piperidine-1-carboxylate, 2HCl], for which the IC50 was in the range of 1000 to 10000 nM.
Consider `COCCNC(=O)N1CCC(Oc2ccc(-c3ccc4nccn4c3C)cc2)CC1` [Example 597, N-(2-Methoxyethyl)-4-[4-(5-methylimidazo[1,2-a]pyridin-6-yl)phenoxy]-piperidine-1-carboxamide], for which the IC50 fell in the range of 1000 to 10000 nM.

The same assay, now with this note: 5 nM FASN, 150 μM NADPH, 10 μM acetyl-CoA, 25 μM malonyl-CoA, 90 minutes incubation; read-out: IC50 data for Compounds of Formulae I-V/V(a): Activity.
`CCC(=O)N1CCC(Oc2ccc(-c3cnc4ccsc4c3)cc2)CC1` [Example 264, 1-[4-(4-Thieno[3,2-b]pyridin-6-yl-phenoxy)-piperidin-1-yl]-propan-1-one, TFA salt]: the IC50 lay in the range of 1000 to 10000 nM.
As for `COc1cc(-c2ccc(OC3CCN(C(=O)C4CCC4)CC3)cc2)cn2nccc12` [Example 412, Cyclobutyl-{4-[4-(4-methoxypyrazolo[1,5-a]pyridin-6-yl)-phenoxy]-piperidin-1-yl}-methanone, HCl], the IC50 was 1 to 99 nM.
Take `Cc1c(-c2ccc(O[C@H]3CCN(C(=O)[C@H]4CCCO4)C[C@H]3F)cc2)ccc2cccnc12` [Example 366, {cis-3-Fluoro-4-[4-(8-methylquinolin-7-yl)-phenoxy]-piperidin-1-yl}-(R)-tetrahydrofuran-2-yl-methanone HCl]: the IC50 lay in the range of 1 to 99 nM.
As to `O=C(C1CC1)N1CCC(Oc2ccc(-c3ccc4cccnc4c3Cl)cc2F)CC1` [Example 222, {4-[4-(8-Chloroquinolin-7-yl)-2-fluorophenoxy]-piperidin-1-yl}-cyclopropyl-methanone], the IC50 lay in the range of 1 to 99 nM.
The same measure, in the same setting: then `C[C@H]1CCO[C@H]1C(=O)N1CCC(Oc2ccc(-c3cnc4ccccc4c3)cc2)CC1` (racemic) [Example 154, ((2R,3S)/(2S,3R)-3-Methyl-tetrahydrofuran-2-yl)-[4-(4-quinolin-3-yl-phenoxy)-piperidin-1-yl]-methanone, HCl], with 1 to 99 nM; and `CCC(=O)N1CCC(Oc2ccc(-c3cnc4cccc(OC)c4c3)cc2)CC1` [Example 463, 1-{4-[4-(5-Methoxyquinolin-3-yl)-phenoxy]-piperidin-1-yl}-propan-1-one, HCl], with 1000 to 10000 nM.
As for `CON(C)C(=O)N1CCC(Oc2ccc(-c3cnc4ccccc4c3C)cc2)CC1` [Example 83, 4-[4-(4-Methylquinolin-3-yl)-phenoxy]-piperidine-1-carboxylic acid methoxymethyl-amide], the IC50 was in the range of 1 to 99 nM.
For `CCC(=O)N1CCC(Oc2ccc(-c3ccc4c(Cl)nccc4c3)cc2)CC1` [Example 419, 1-{4-[4-(1-Chloroisoquinolin-6-yl)-phenoxy]-piperidin-1-yl}-propan-1-one], the IC50 lay within 100 to 999 nM.
Turning to `Cc1c(-c2ccc(OC3CCN(C(=O)C(C)(F)F)CC3)cc2)ccc2cccnc12` [Example 358, 2,2-Difluoro-1-{4-[4-(8-methylquinolin-7-yl)-phenoxy]-piperidin-1-yl}-propan-1-one, HCl], the IC50 was in the range of 100 to 999 nM.
Take `O=C(C1CC1)N1CCC(Oc2ccc(-c3ccc4nccn4c3Cl)cc2)CC1` [Example 297, {4-[4-(5-Chloroimidazo[1,2-a]pyridin-6-yl)-phenoxy]-piperidin-1-yl}-cyclopropylmethanone]: the IC50 was in the range of 100 to 999 nM.
As for `CC(C)C(=O)N1CCC(S(=O)(=O)c2ccc(-c3ccc4cnccc4c3)cc2)CC1` [Example 514, 1-[4-(4-Isoquinolin-6-yl-benzenesulfonyl)-piperidin-1-yl]-2-methyl-propan-1-one], the IC50 lay in the range of 1000 to 10000 nM.
In the case of `CCC(=O)N1CCC(Oc2ccc(-c3ccc4cccnc4c3)cc2OC)CC1` [Example 199, 1-[4-(2-Methoxy-4-quinolin-7-yl-phenoxy)-piperidin-1-yl]-propan-1-one], the IC50 lay in the range of 1000 to 10000 nM.
`COc1nccc2cc(-c3ccc(OC4CCN(C(=O)[C@H]5CCCO5)CC4)cc3)ccc12` [Example 432, {4-[4-(1-Methoxyisoquinolin-6-yl)-phenoxy]-piperidin-1-yl}-(R)-tetrahydro-furan-2-yl-methanone]: the IC50 was in the range of 1 to 99 nM.
Still for that read-out and setting: then `Cc1cccc2ncc(-c3ccc(OC4CCN(C(=O)[C@H]5CCCO5)CC4)cc3)cc12` [Example 462, {4-[4-(5-Methylquinolin-3-yl)-phenoxy]-piperidin-1-yl}-(R)-tetrahydro-furan-2-yl-methanone, HCl], with 1 to 99 nM.
`O=C(C1CC1)N1CCC(Oc2ccc(-c3ccc(N4CCOCC4)nc3)cc2)CC1` [Example 387, Cyclopropyl-{4-[4-(6-morpholin-4-yl-pyridin-3-yl)-phenoxy]-piperidin-1-yl}-methanone]: the IC50 was in the range of 1000 to 10000 nM.
For the compound `CC1(C(=O)N2CCC(Oc3ccc(-c4cnc5ccccc5c4)cc3)CC2)OCCO1` [Example 116, (2-Methyl-1,3-dioxolan-2-yl)-[4-(4-quinolin-3-yl-phenoxy)-piperidin-1-yl]-methanone, HCl], the IC50 lay in the range of 1 to 99 nM.
For `O=C([C@H]1CCCO1)N1CCC(Oc2ccc(-c3cnc4ccccc4n3)cc2)CC1` [Example 68, [4-(4-Quinoxalin-2-yl-phenoxy)-piperidin-1-yl]-(R)-tetrahydrofuran-2-yl-methanone], the IC50 was 1 to 99 nM.
On to `CCC(=O)N1CCC(Oc2ccc(-c3ccc(C#N)cc3)cc2)CC1` [Example 493, 4′-(1-Propionyl-piperidin-4-yloxy)-biphenyl-4-carbonitrile], for which the IC50 lay in the range of 1000 to 10000 nM.
Still for that read-out and setting: then `CCC(=O)N1CCC(Oc2ccc(-c3ccnc(-c4ccccc4)c3)cc2)CC1` [Example 402, 1-{4-[4-(2-Phenylpyridin-4-yl)-phenoxy]-piperidin-1-yl}-propan-1-one, TFA], with 1000 to 10000 nM; and `O=C(C1CCCS1(=O)=O)N1CCC(Oc2ccc(-c3cnc4ccccc4c3)cc2)CC1` (stereo not drawn) [Example 118, (1,1-Dioxidotetrahydrothiophen-2-yl)(4-(4-(quinolin-3-yl)phenoxy)piperidin-1-yl)methanone, HCl], with 1000 to 10000 nM.
With `CCC(=O)N1CCC(Oc2ccc(-c3cnc4cc(OC)c(C)cc4c3)cc2)CC1` [Example 441, 1-{4-[4-(7-Methoxy-6-methylquinolin-3-yl)-phenoxy]-piperidin-1-yl}-propan-1-one], the IC50 lay within 1000 to 10000 nM.
With `CCC(=O)N1CC[C@@H](Oc2ccc(-c3ccc4cccnc4c3C)cc2)[C@H](F)C1` (relative stereo) [Example 373, 1-{trans-3-Fluoro-4-[4-(8-methylquinolin-7-yl)-phenoxy]-piperidin-1-yl}-propan-1-one, HCl], the IC50 lay within 100 to 999 nM.
On the same count and under the same terms, then `CCC(=O)N1[C@@H]2CC[C@H]1C[C@H](Oc1ccc(-c3ccc4cccnc4c3C)cc1)C2` [Example 361, 1-{exo-3-[4-(8-Methylquinolin-7-yl)-phenoxy]-8-aza-bicyclo[3.2.1]oct-8-yl}-propan-1-one HCl], with 1000 to 10000 nM.
The same measure, in the same setting: then `CCC(=O)N1CCC(C(=O)N(C)c2ccc(-c3ccc4cnccc4c3)cc2)CC1` [Example 151, 1-Propionyl-piperidine-4-carboxylic acid (4-isoquinolin-6-yl-phenyl)-methylamide], with 100 to 999 nM; and `Cc1cc(-c2ccc(OC3CCN(C(=O)C4CC4)CC3)cc2)cn2ccnc12` [Example 288, Cyclopropyl-{4-[4-(8-methylimidazo[1,2-a]pyridin-6-yl)-phenoxy]-piperidin-1-yl}-methanone], with 100 to 999 nM.
In the case of `COc1cccc2cc(-c3ccc(OC4CCN(C(=O)C5CC5)CC4)cc3)cnc12` [Example 58, Cyclopropyl-{4-[4-(8-methoxyquinolin-3-yl)-phenoxy]-piperidin-1-yl}-methanone], the IC50 fell in the range of 100 to 999 nM.
Take `Cn1ncc2ccc(-c3ccc(OC4CCN(C(=O)C5CC5)CC4)cc3)cc21` [Example 270, Cyclopropyl-{4-[4-(1-methyl-1H-indazol-6-yl)-phenoxy]-piperidin-1-yl}-methanone. TFA salt]: the IC50 is 100 to 999 nM.
For the compound `CCC(=O)N1CCC(Oc2ccc(-c3ccc4cccnc4c3OCCN3CCN(C)CC3)cc2)CC1` [Example 177, 1-[4-[4-[8-[2-(4-Methylpiperazin-1-yl)ethoxy]-7-quinolyl]phenoxy]-1-piperidyl]propan-1-one, HCl], the IC50 was 1000 to 10000 nM.
As for `O=C([C@H]1CCCO1)N1CCC(Oc2ccc(-c3ccc4cccnc4c3OCCN3CCCC3)cc2)CC1` [Example 183], the IC50 fell in the range of 1000 to 10000 nM.
For the compound `CCC(=O)N1CCC(Oc2ccc(-c3ccc4cccnc4c3OC(C)C)cc2)CC1` [Example 169, 1-{4-[4-(8-Isopropoxyquinolin-7-yl)-phenoxy]-piperidin-1-yl}-propan-1-one, HCl], the IC50 was 100 to 999 nM.
Regarding `O=C([C@H]1CCCO1)N1CCC(Oc2ccc(-c3cnc4ccccc4c3)cc2)CC1` [Example 103, [4-(4-Quinolin-3-yl-phenoxy)-piperidin-1-yl]-(R)-tetrahydrofuran-2-yl-methanone, HCl], the IC50 lay in the range of 1 to 99 nM.
As to `CCC(=O)N1CCC(Oc2ccc(-c3ccc4cccnc4c3NC)cc2)CC1` [Example 326, 1-{4-[4-(8-Methylaminoquinolin-7-yl)-phenoxy]-piperidin-1-yl}-propan-1-one], the IC50 fell in the range of 100 to 999 nM.
On the same count and under the same terms, then `CCC(=O)N1CCC(Oc2ccc(-c3ccc4cnn(C)c4c3)cc2)CC1` [Example 249, 1-{4-[4-(1-Methyl-1H-indazol-6-yl)-phenoxy]-piperidin-1-yl}-propan-1-one, TFA salt], with 100 to 999 nM.
Still for that read-out and setting: then `CCC(=O)N1CCC(Oc2ccc(-c3ccc4cccnc4c3)nc2)CC1` [Example 144, 1-[4-(6-Quinolin-7-yl-pyridin-3-yloxy)-piperidin-1-yl]-propan-1-one, 2HCl], with 1000 to 10000 nM.
